Common to all, as to format: cell-based
For test [1], the system named is Human pancreatic cancer cell CFPAC-1. As to the kind of experiment: CCK-8 cell proliferation assay, CFPAC-1. Conditions: CFPAC-1 cells, CCK-8, 24 hrs with drug, OD 450 nm. The procedure:
(§1) The effect of samples on the proliferation of human tumor cells in vitro was determined by CCK-8 cell proliferation assay.
(§2) The cells were assayed through a method including the following steps:
(§3) 1) The cells were digested, counted, and prepared into a cell suspension in a corresponding culture medium (Table 1) (5×10^4 cells/ml for CFPAC-1 and RPMI 8226, and 3.5×10^4 cells/ml for rest cells). The cell suspension was added to each well of a 96-well plate in 100 μl well.
(§4) 2) Then the 96-well plate was incubated for 24 hrs in an incubator at 37° C. and 5% CO2.
(§5) 3) The drug was diluted with the culture medium to the required working concentration. 100 μl of the corresponding drug containing medium was added to each well. A negative control group (added with drug-free culture medium) was also set.
(§6) 4) Then the 96-well plate was incubated for 24 hrs in an incubator at 37° C. and 5% CO2.
(§7) 5) The 96-well plate was stained with CCK-8, and The OD value was determined at λ=450 nm.
(§8) a) 10 μl of CCK-8 was added to each well, and incubated in the incubator for another 2-3 hrs.
(§9) b) The content was mixed uniformly by shaking gently on a shaker for 10 min, and the bubbles in the 96-well plate were removed.
(§10) 6) The inhibition rate in each group was calculated.
Background: Tetrazolium dyes change colour on reduction, which living cells bring about.

Test [2] deals with Human colon cancer cell HCT-116. Put plainly: CCK-8 cell proliferation assay, HCT116. The following applies: HCT116 cells, CCK-8, 24 hrs with drug, OD 450 nm. The procedure: as §1, §2, §3, §4, §5, §6, §7, §8, §9, §10
The test system of test [3] is Human hepatoma cell HepG2. Put plainly: CCK-8 cell proliferation assay, HepG2. Conditions: HepG2 cells, CCK-8, 24 hrs with drug, OD 450 nm. The procedure: as §1, §2, §3, §4, §5, §6, §7, §8, §9, §10
Test [4] relates to Human esophageal cancer cell TE-1. Put plainly: CCK-8 cell proliferation assay, TE-1. The following applies: TE-1 cells, CCK-8, 24 hrs with drug, OD 450 nm. The procedure:
as §1, §2, §3, §4, §5, §6, §7, §8, §9, §10

In test [5] the test system is Human lung adenocarcinoma cell A549. Put plainly: CCK-8 cell proliferation assay, A549. The following applies: A549 cells, CCK-8, 24 hrs with drug, OD 450 nm. How it is done:
as §1, §2, §3, §4, §5, §6, §7, §8, §9, §10

The subject of test [6] is Human multiple myeloma cell RPMI 8226. Put plainly: CCK-8 cell proliferation assay, RPMI8226. The following applies: RPMI8226 cells, CCK-8, 24 hrs with drug, OD 450 nm. How it is done: as §1, §2, §3, §4, §5, §6, §7, §8, §9, §10
In test [7] the test system is Human gastric cancer cell MKN45. As to the kind of experiment: CCK-8 cell proliferation assay, MKN-45. Conditions: MKN-45 cells, CCK-8, 24 hrs with drug, OD 450 nm. How it is done:
as §1, §2, §3, §4, §5, §6, §7, §8, §9, §10

One may read the IC50 as the concentration needed to halve the response being measured. A high value points to lower potency.

Regarding `O=C(NCCCCCCC1CCN(C(=O)c2ccc[nH]2)C1)Nc1cccnc1` (stereo not drawn) [BSS-TP112, 1-(6-(1-(2-pyrrolylformyl)pyrrolidin-3-yl)hexyl)-2-(3-pyridinyl)urea], the IC50 in test [1] was determined as 36 nM; in test [2], 78 nM; in test [3], 81 nM; in test [4], 93 nM; in test [5], 52 nM; in test [6], 42 nM. In addition, it took 59 nM to reach half-maximal inhibition in test [7] (IC50).
As for `O=C(NCCCCCCC1CCN(C(=O)c2ccccc2)C1)Nc1ccnc(F)c1` (stereo not drawn) [BSS-TP113], the IC50 in test [1] was 38 nM; in test [2] it was 41 nM; in test [3], 83 nM; in test [4], 77 nM; in test [5] it was 33 nM; in test [6], 38 nM. Besides, in test [7], the IC50 was determined as 42 nM.
Take `O=C(NCCCCCCC1CCN(C(=O)c2ccc[nH]2)C1)Nc1ccnc(F)c1` (stereo not drawn) [BSS-TP114]: the IC50 came out at 33 nM in test [1]; 85 nM in test [2]; 72 nM in test [3]; 76 nM in test [4]; 49 nM in test [5]; 39 nM in test [6]. In test [7], this compound returned an IC50 of 51 nM.
On to `O=C(NCCCCCCC1CCN(C(=O)c2ccco2)C1)Nc1ccnc(F)c1` (stereo not drawn) [BSS-TP115], for which the concentration for half-maximal inhibition (IC50) stood at 39 nM in test [1]; 68 nM in test [2]; 79 nM in test [3]; 88 nM in test [4]; 51 nM in test [5]; 46 nM in test [6]. In test [7], this compound had an IC50 of 40 nM.
Regarding `O=C(NCCCCCCC1CCN(C(=O)c2cccs2)C1)Nc1ccnc(F)c1` (stereo not drawn) [BSS-TP116], the IC50 in test [1] came to 47 nM; in test [2] it was 83 nM; in test [3], 81 nM; in test [4], 69 nM; in test [5] it was 39 nM; in test [6], 31 nM. For the same compound, the half-maximal inhibitory concentration (IC50) in test [7] was 79 nM.
As to `O=C(NCCCCCCC1CCN(C(=O)c2ccccc2)C1)Nc1cc(F)nc(F)c1` (stereo not drawn) [BSS-TP117], the IC50 in test [1] came to 37 nM; in test [2], 53 nM; in test [3], 49 nM; in test [4] it was 47 nM; in test [5], 58 nM; in test [6], 36 nM. Besides, the IC50 in test [7] was found to be 45 nM.
On to `O=C(NCCCCCCC1CCN(C(=O)c2ccco2)C1)Nc1cc(F)nc(F)c1` (stereo not drawn) [BSS-TP118], for which the IC50 in test [1] was found to be 42 nM; in test [2], 61 nM; in test [3] it was 64 nM; in test [4] it was 81 nM; in test [5], 59 nM; in test [6] it was 24 nM. This compound also had an IC50 in test [7] of 62 nM.
With `O=C(NCCCCCCC1CCN(C(=O)c2cccs2)C1)Nc1cc(F)nc(F)c1` (stereo not drawn) [BSS-TP119], the IC50 in test [1] amounted to 38 nM; in test [2] it was 50 nM; in test [3], 83 nM; in test [4] it was 87 nM; in test [5], 72 nM; in test [6], 43 nM. Besides, the IC50 in test [7] is 61 nM.
As to `O=C(NCCCCCCC1CCN(C(=O)c2ccc[nH]2)C1)Nc1cc(F)nc(F)c1` (stereo not drawn) [BSS-TP120], the IC50 came out at 35 nM in test [1]; 66 nM in test [2]; 53 nM in test [3]; 49 nM in test [4]; 47 nM in test [5]; 28 nM in test [6]. Besides, in test [7], the half-maximal inhibitory concentration (IC50) amounted to 42 nM.
On to `O=C(NCCCCCCC1CCN(C(=O)c2cc3ccccc3[nH]2)C1)Nc1ccncc1` (stereo not drawn) [BSS-TP121, 1-(6(1-(2-indolylformyl)pyrrolidin-3-yl)hexyl)-2-(4-pyridinyl)urea], for which the IC50 in test [1] turned out to be 51 nM; in test [2], 83 nM; in test [3], 72 nM; in test [4] it was 74 nM; in test [5] it was 69 nM; in test [6], 52 nM. Moreover, 32 nM corresponded to half-maximal inhibition in test [7] (IC50).
Regarding `O=C(NCCCCCCC1CCN(C(=O)c2cc3ccccc3o2)C1)Nc1ccncc1` (stereo not drawn) [BSS-TP122, 1-(6-(1-(2-benzofurylformyl)pyrrolidin-3-yl)hexyl)-2-(4-pyridinyl)urea], the IC50 in test [1] stood at 49 nM; in test [2] it was 69 nM; in test [3] it was 71 nM; in test [4], 63 nM; in test [5], 67 nM; in test [6] it was 26 nM. Also, the IC50 in test [7] is 61 nM.
On to `O=C(NCCCCCCC1CCN(C(=O)c2cc3ccccc3[nH]2)C1)Nc1ccnc(F)c1` (stereo not drawn) [BSS-TP123], for which the IC50 turned out to be 59 nM in test [1]; 58 nM in test [2]; 59 nM in test [3]; 65 nM in test [4]; 63 nM in test [5]; 32 nM in test [6]. For the same compound, the IC50 in test [7] stood at 69 nM.
Take `O=C(NCCCCCCC1CCN(C(=O)c2cc3ccccc3o2)C1)Nc1ccnc(F)c1` (stereo not drawn) [BSS-TP124]: the IC50 in test [1] was 42 nM; in test [2], 73 nM; in test [3] it was 63 nM; in test [4], 82 nM; in test [5], 56 nM; in test [6], 39 nM. This compound also had an IC50 in test [7] of 64 nM.
On to `COc1cccc(OC)c1C(=O)N1CCC(CCCCCCNC(=O)Nc2cc(F)nc(F)c2)C1` (stereo not drawn) [BSS-TP125], for which the IC50 in test [1] came to 47 nM; in test [2] it was 49 nM; in test [3] it was 52 nM; in test [4], 43 nM; in test [5], 46 nM; in test [6], 28 nM. The IC50 in test [7] came to 57 nM.
As to `COc1cccc(OC)c1C(=O)N1CCC(CCCCCCCNC(=O)Nc2ccncc2)C1` (stereo not drawn) [BSS-TP126, 1-(7-(1-(2,6-dimethoxybenzoyl)pyrrolidin-3-yl)heptyl)-2-(4-pyridinyl) urea], the 50% inhibitory concentration (IC50) amounted to 53 nM in test [1]; 63 nM in test [2]; 92 nM in test [3]; 88 nM in test [4]; 55 nM in test [5]; 33 nM in test [6]. The same compound showed a concentration for half-maximal inhibition (IC50) in test [7] of 32 nM.
As to `COc1cccc(OC)c1C(=O)N1CCC(CCCCNC(=O)Nc2ccncc2)C1` (stereo not drawn) [BSS-TP127, 1-(4-(1-(2,6-dimethoxybenzoyl)pyrrolidin-3-yl)butyl)-2-(4-pyridinyl) urea], the half-maximal inhibitory concentration (IC50) in test [1] amounted to 58 nM; in test [2] it was 76 nM; in test [3], 102 nM; in test [4] it was 135 nM; in test [5], 75 nM; in test [6], 34 nM. This compound had an IC50 in test [7] of 109 nM.
Regarding `O=C(NCCCCCCCC1CCN(C(=O)c2ccco2)C1)Nc1ccncc1` (stereo not drawn) [BSS-TP128, 1-(7-(1-(furoyl)pyrrolidin-3-yl)heptyl)-2-(4-pyridinyl)urea], the IC50 in test [1] stood at 53 nM; in test [2] it was 97 nM; in test [3], 110 nM; in test [4] it was 124 nM; in test [5], 68 nM; in test [6], 36 nM. The IC50 in test [7] was determined as 51 nM.
On to `O=C(NCCCCCCCC1CCN(C(=O)c2ccc[nH]2)C1)Nc1ccncc1` (stereo not drawn) [BSS-TP129, 1-(7-(1-(2-pyrrolylformyl)pyrrolidin-3-yl)heptyl)-2-(4-pyridinyl)urea], for which the concentration for half-maximal inhibition (IC50) in test [1] stood at 28 nM; in test [2], 72 nM; in test [3] it was 93 nM; in test [4], 96 nM; in test [5], 73 nM; in test [6] it was 23 nM. Further, the IC50 in test [7] stood at 49 nM.

Values taken from patent US12291515B2, “Pyrrolidine derivative and use thereof” (Rushi Biotech (Hangzhou) Co., Ltd, priority 2021, dated 2025).
